The values below come from US7015211B2 (Yale University, priority 2003, dated 2006).

The subject of one data set is uterus of immature rats. The data set can be described thus: In vivo estrogen bioassay: uterine weight (uterotrophic assay, systemic). Also on record: species or system rat. How it is done:
In Vivo Estrogen Bioassays: Uterine Weight. […] Control animals received sesame oil. On the fourth day, the animals were killed, the uteri were removed, dissected, blotted and weighed. Except where noted, each compound was assayed in 2 separate experiments with n=5.

Data set [1] relates to human endometrial adenocarcinoma cells (Ishikawa). Nature of the data set: Estrogenic potency in Ishikawa cells, induction of alkaline phosphatase (AlkP). Format: cell-based. How it is done: Estrogenic Potency in Ishikawa Cells. The estrogenic potency of the E2-analogs was determined in an estrogen bioassay, the induction of alkaline phosphatase (AlkP) in human endometrial adenocarcinoma cells (Ishikawa) grown in 96-well microtiter plates as we have previously described.^38 In short, the cells are grown in phenol red free medium with estrogen depleted (charcoal stripped) bovine serum in the presence or absence of varying amounts of the steroids, across a dose range of at least 6 orders of magnitude. […] After 3 days, the cells are washed, frozen and thawed, and then incubated with 5 mM p-nitrophenyl phosphate, a chromogenic substrate for the AlkP enzyme, at pH 9.8. To ensure linear enzymatic analysis, the plates are monitored kinetically for the production of p-nitrophenol at 405 nm. […] Each compound was analyzed in at least 3 separate experiments performed in duplicate.

Data set [2] deals with T1, ligand binding domain (LBD) of human ERβ (M214-Q530) (Homo sapiens, UniProt Q92731).
T1 construct: human ERβ (M214-Q530); made in house; host or cells: Escherichia coli (lysate used)
The data set can be described thus: Competitive binding to the LBD of human ERβ in E. coli lysates. Particulars: RBA compared to E2 (=100), [3H]E2, ± SD.

Data set [3] addresses T2, ligand binding domain (LBD) of human ERα (M250-V595) (Homo sapiens, UniProt P03372).
T2 construct: human ERα (M250-V595); made in house; host or cells: Escherichia coli (lysate used)
T2 sequence (P03372 250-595): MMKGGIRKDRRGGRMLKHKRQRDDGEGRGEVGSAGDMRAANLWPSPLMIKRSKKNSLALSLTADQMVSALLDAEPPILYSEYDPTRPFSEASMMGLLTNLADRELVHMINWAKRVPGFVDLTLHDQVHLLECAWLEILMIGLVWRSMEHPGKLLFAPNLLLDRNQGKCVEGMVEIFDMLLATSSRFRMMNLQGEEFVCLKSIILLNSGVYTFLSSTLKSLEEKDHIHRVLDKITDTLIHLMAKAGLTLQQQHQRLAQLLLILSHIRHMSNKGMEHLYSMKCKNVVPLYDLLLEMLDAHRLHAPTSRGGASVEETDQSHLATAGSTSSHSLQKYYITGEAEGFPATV
The data set can be described thus: Competitive binding to the LBD of human ERα in E. coli lysates.

For data set [4], the system named is esterase, rat hepatic microsomes. Nature of the data set: Esterase hydrolysis in rat hepatic microsomes. Format: in vitro ADME. How it is done:
Esterase. Esterase activity was measured in rat hepatic microsomes essentially using the conditions described^41 with some minor modifications. Briefly, rat hepatic microsomes were incubated with 50 μM E2-alkyl ester. Since the rates of reaction are widely different for the various esters, the incubation times and enzyme concentration were varied accordingly to obtain linear kinetics. In every experiment, E16-1,2 was run concurrently to normalize the rate of hydrolysis of each compound. At several appropriate time points during the incubation (37° C.), 100 μL aliquots were quenched with a solution of 2 μg of the internal standard, 6-ketoestradiol in 33 μL of CH3CN, 33 μL of THF and 5 μL of glacial HOAc. The mixture was centrifuged and analyzed for the esterase-hydrolysis product (the corresponding E2-carboxylic acid) by reversed phase HPLC: E16-1,0; E15-1,0; E15-2,0; and E15-3,0 by HPLC with system H-29. Peaks for the hydrolysis product (E16-1,0 tR=10.7 min; E15-1,0 tR=6.9 min; E15-2,0 tR=9.9 min; E15-3,0 tR=14 min;) and the internal standard (tR=11.8 min for system H-29 and tR=8.8 min for system H-30 were quantified at 280 nm on the HPLC UV detector. The UV absorbance was converted to nmoles of product by comparison to standard curves and corrected for recovery of the internal standard, 6-ketoestradiol. The velocity of the reaction for each ester, in nmol product/min/mg protein, was then normalized to the ester, E16-1,2 and is shown in Table 1 as relative hydrolytic activity (RHA) The enzymatic velocity for the hydrolysis of E16-1,2 was 2.34±0.8 (S.D.) nmol product/min/mg protein over the various experiments. All compounds were tested in triplicate in at least 2 separate experiments

In data set [5] the test system is vagina of ovariectomized mice. Nature of the data set: In vivo estrogen bioassay: vaginal reductases (local). Further details: species or system mouse. How it is done: In Vivo Estrogen Bioassays: Vaginal reductases. […] The formazan product in the organic extract is quantified at 500 nm. Except where noted, each compound was assayed on at least 2 separate occasions with at least 5–6 replicates each time.

Data set [6] deals with T3, ER (ERα) in uterine cytosol (Rattus norvegicus, UniProt P06211).
T3 sequence (P06211 1-600): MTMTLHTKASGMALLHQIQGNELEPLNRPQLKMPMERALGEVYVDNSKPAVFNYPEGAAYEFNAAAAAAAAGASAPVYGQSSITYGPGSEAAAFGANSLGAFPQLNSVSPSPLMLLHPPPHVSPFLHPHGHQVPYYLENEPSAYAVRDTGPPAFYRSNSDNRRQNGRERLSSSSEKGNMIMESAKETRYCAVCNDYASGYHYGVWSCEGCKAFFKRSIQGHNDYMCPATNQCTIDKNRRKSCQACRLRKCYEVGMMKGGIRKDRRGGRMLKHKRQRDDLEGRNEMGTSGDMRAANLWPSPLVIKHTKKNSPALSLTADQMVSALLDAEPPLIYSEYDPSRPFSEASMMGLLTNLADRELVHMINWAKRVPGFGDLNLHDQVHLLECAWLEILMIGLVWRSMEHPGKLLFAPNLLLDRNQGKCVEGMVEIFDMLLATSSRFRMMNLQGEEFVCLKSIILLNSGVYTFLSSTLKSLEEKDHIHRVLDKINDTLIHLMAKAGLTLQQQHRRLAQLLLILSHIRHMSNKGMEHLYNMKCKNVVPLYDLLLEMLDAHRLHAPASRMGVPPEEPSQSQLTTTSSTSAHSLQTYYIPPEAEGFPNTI
Nature of the data set: Competitive binding to the estrogen receptor in rat uterine cytosol.

Entries after “also recorded” stand apart in the source; their conditions may differ.

T1 sequence (Q92731 214-530): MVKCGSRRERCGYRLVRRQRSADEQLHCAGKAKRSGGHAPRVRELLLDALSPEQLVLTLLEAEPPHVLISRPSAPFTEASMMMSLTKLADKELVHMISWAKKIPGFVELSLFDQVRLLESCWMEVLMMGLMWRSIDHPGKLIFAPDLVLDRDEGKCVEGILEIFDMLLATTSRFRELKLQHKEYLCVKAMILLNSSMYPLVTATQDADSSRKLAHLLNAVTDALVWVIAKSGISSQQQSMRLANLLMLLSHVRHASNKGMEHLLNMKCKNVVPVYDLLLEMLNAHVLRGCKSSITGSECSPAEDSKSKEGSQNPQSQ

Take `CCOC(=O)[C@H]1C[C@H](O)[C@@]2(C)CC[C@@H]3c4ccc(O)cc4CC[C@H]3[C@H]12` [E15-1,2, Ethyl(3,17β-dihydroxyestra-1,3,5(10)-trien-15α-yl)formate]: the “uterotrophic response (in words)” value in the data set on uterus of immature rats (100 μg dose) was “neither of these 15α-substituted estrogens produced a statistically significant uterotrophic response; also recorded: neither of these 15α-alkyl esters produce a statistically significant estrogenic response in the uterus; also recorded: inactive in the uterotrophic assay”. Moreover, the “uterotrophic stimulation at 300 μg dose, equivalent ng of E2” value in the data set with uterus of immature rats (300 μg dose, statistically significant (P<0.05)) is reported as 5 ng of E2. The “Uterotrophic R.A × 10^3” value in the data set with uterus of immature rats (activity relative to E2, × 10^3, 100 μg dose, n.s. = not significantly different from the control) is listed as “n.s”. Also, in data set [1] (relative stimulatory activity = EC50 of E2 / EC50 of analog x 100, E2 = 100, 3 days, ± SD), the “Ishikawa cell AlkP (RSA)” value is on record as 18 ± 10. For the same compound, the “RSA” value in data set [1] (relative to E2) was determined as 18%. The “ERβ RBA” value in data set [2] is 7 ± 2. For the same compound, the “selectivity / preference for ERα” value in data set [3] (ERα versus ERβ LBD) is recorded as “about 3 fold”. In data set [3] (RBA compared to E2 (=100), LBD of human ERα in E. coli lysates, [3H]E2, ± SD), the “ERα RBA” value is given as 22 ± 5. Moreover, the “ERα/ERβ (ratio of RBA)” value in data set [3] (ratio RBA of ERα/ERβ, human LBDs, ± SD) came to 3 ± 0.6. Besides, in data set [4], the “Esterase (RHA)” value was found to be 2.3 ± 0.1. Further, in data set [5] (activity relative to E2, × 10^3, 50 ng dose), the “Vaginal R.A × 10^3” value came out at 0.42. Further, in data set [5] (mouse, in vivo), the “activity in the vaginal assay (in words)” value is “very active in the vaginal assay”. Moreover, in data set [6] (relative binding affinity, E2 = 100, rat uterine cytosol, 1 nM [3H]E2, ± SD), the “Estrogen Receptor (RBA)” value is given as 25 ± 12. Besides, the “RBA” value in data set [6] (relative to E2) worked out at 25%.
